Entries after “also recorded” stand apart in the source; their conditions may differ. Where two headings read alike, the source gives them in different places.
T1: AATase (Saccharomyces cerevisiae, UniProt P40353, N391K/T84I)
T1 construct: culturing yeast cells of Saccharomyces cerevisiae KYOKAI No. 7 and recovering and purifying the crude enzyme; endogenous in cells; host or cells: Saccharomyces cerevisiae KYOKAI No. 7 (sake yeast)
T1 sequence (P40353 1-525 T84I/N391K): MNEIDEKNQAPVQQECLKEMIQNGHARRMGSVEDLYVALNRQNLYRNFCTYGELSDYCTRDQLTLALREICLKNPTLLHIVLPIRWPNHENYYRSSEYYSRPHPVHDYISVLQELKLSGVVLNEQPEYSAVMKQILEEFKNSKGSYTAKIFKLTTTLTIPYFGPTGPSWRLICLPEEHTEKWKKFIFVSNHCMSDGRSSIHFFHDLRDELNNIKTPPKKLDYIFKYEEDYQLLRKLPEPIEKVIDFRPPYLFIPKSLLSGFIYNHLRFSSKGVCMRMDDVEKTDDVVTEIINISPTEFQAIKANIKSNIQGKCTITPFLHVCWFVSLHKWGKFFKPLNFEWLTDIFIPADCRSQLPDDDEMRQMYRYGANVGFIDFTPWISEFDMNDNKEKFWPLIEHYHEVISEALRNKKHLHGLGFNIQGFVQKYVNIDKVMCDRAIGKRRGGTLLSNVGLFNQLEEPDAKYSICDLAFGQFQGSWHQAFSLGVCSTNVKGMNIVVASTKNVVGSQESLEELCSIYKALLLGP

B1: AATase (Saccharomyces cerevisiae S288C; N391K/T84I) (protein)
chain: T1 sequence (P40353 1-525 T84I/N391K)
notes: culturing yeast cells of Saccharomyces cerevisiae KYOKAI No. 7 and recovering and purifying the crude enzyme; endogenous in cells; host or cells: Saccharomyces cerevisiae KYOKAI No. 7 (sake yeast)

Assays:
AATase [1] = target: T1, AATase; test: biochemical; format: biochemical
AATase [2] = target: T1, AATase; test: biochemical; settings: read-out: Relative activity (%)
[3] = substrate: CC(=O)SCCNC(=O)CCNC(=O)[C@H](O)C(C)(C)COP(=O)(O)OP(=O)(O)OC[C@H]1O[C@@H](n2cnc3c(N)ncnc32)[C@H](O)[C@@H]1OP(=O)(O)O; test: Km value of AATase to isoamyl alcohol and acetyl-CoA; format: biochemical, Saccharomyces cerevisiae; settings: other: substrate of AATase; pH 7.5; 25.0 °C
Description: (§1) A 1 ml of a solution containing a buffer for AATase reaction (25 mM imidazole hydrochloride buffer (pH 7.5), 1 mM acetyl-CoA, 0.1% Triton X-100, 0.5% isoamyl alcohol, 1 mM dithiothreitol, 0.1M sodium chloride, 20% glycerol: or 10 mM phosphate buffer (pH 7.5), 1 mM acetyl-CoA, 0.1% Triton X-100, 0.5% isoamyl alcohol, 1 mM dithiothreitol, 0.1M sodium chloride, 20% glycerol) and the enzyme of the present invention was encapsulated into a 20 ml vial and reacted at 25° C. for 1 hour. After incubation, the vial was opened and the reaction was stopped by adding 0.6 g of sodium chloride. n-Butanol was added as an internal standard to the reaction mixture up to 50 ppm. The vial was capped with a teflon stopper. Then, the isoamyl acetate generated was determined with the head space gas chromatography (Shimadzu GC-9A, HSS-2A) under the following condition: […]

[4] = substrate: CC(C)CCO; test: as above; format: biochemical, Saccharomyces cerevisiae; settings: other: substrate of AATase; pH 7.5; 25.0 °C
Description: as §1

Molecule	activity at 2000 µM (AATase [2])	also measured
c1cnc2c(c1)ccc1cccnc12 [1,10-phenanthroline]		activity at 1000 µM (AATase [1]; read-out: Relative activity (%)): 87.9%
O=C(O)c1cc(SSc2ccc([N+](=O)[O-])c(C(=O)O)c2)ccc1[N+](=O)[O-] [DTNB, Dithiobis(2nitrobenzoic acid)]		Relative activity (%) (AATase [1]; inhibitor 0.1 mM per footnote (head: 1 mM), None = 100): 0%
CCCCC/C=C\C/C=C\CCCCCCCC(=O)O [Linoleic acid]	4.3%	
CC/C=C\C/C=C\C/C=C\CCCCCCCC(=O)O [Linolenic acid]	32%	
CCCCCCCCCCCCCC(=O)O [Myristic acid]	60.5%	
CCCCCCCC/C=C\CCCCCCCC(=O)O [Oleic acid]	59.6%	
O=C(O)c1cc[c]([Hg][Cl])cc1 [PCMB, pChloromercuribenzoic acid]		Inhibition of the enzyme (in words) (AATase [1]): inhibited strongly; also recorded: intensively inhibited; Relative activity (%) (AATase [1]): 0%
O=S(=O)(F)Cc1ccccc1 [PMSF, Phenylmethanesulfonyl fluoride]		Relative activity (%) (AATase [1]): 70.2%
CCCCCCCCCCCCCCCC(=O)O [Palmitic acid]	88.1%	
CCCCCC/C=C\CCCCCCCC(=O)O [Palmitoleic acid]	16.7%	
CCCCCCCCCCCCCCCCCC(=O)O [Stearic acid]	80.5%	
B1		Km [3]: 0.19 mM; Km [4]: 29.8 mM
